This note sets out measurements from ChEMBL document CHEMBL1201862, “PubChem BioAssay data set” (2004).

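Briefly, cells in 96-well plates were exposed to five compound concentrations for 48 h, and endpoints were estimated by linear interpolation. At the GI50, growth is halved.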 Calls of active or inactive are those of the source. No stated cut-off is given here; in the data, active = GI50 up to about 1.1 µM and inactive = higher. Bounds are passed on as bounds.

Some test systems named below: COLO 205; DU-145; HCC 2998; HOP-62; HOP-92; IGROV-1; MCF7; MDA-MB-435; NCI-H522; NCI/ADR-RES; RPMI-8226; RXF 393; SK-MEL-2; SK-OV-3; TK-10; UACC-257; UO-31; K562; OVCAR-4; HL-60.
What all share (experiment): NCI anticancer screen, dose series, 48 h

For `CC(=O)CC1(C)OC(N)=C(C#N)C1(C#N)C#N` (stereo not drawn), the GI50 was 45.9 µM (inactive) with COLO 205; > 100 µM (inactive) in the test on DU-145; > 100 µM (inactive) with HCC 2998; 55.1 µM (inactive) in the test with HOP-62; 74.6 µM (inactive) in the test with HOP-92; > 100 µM (inactive) in the test on IGROV-1. Besides, the GI50 in the test on MCF7 was > 100 µM (inactive); in the test with MDA-MB-435 it was > 100 µM (inactive); in the test with NCI-H522, 48.9 µM (inactive); in the test with NCI/ADR-RES, > 100 µM (inactive); with RPMI-8226 it was > 100 µM (inactive); with RXF 393 it was > 100 µM (inactive). For the same compound, the GI50 in the test with SK-MEL-2, in the test on SK-OV-3, with TK-10, with UACC-257 and in the test with UO-31 was > 100 µM (inactive) throughout.
With `COC1O[C@@H]2CCN3C(=O)[C@@H](OC(=O)c4ccc([N+](=O)[O-])cc4)[C@H]1C23` (stereo partly drawn), the GI50 with COLO 205, with DU-145, with HCC 2998, with HOP-62, in the test on HOP-92 and in the test on IGROV-1 was > 100 µM (inactive) each time. Moreover, the GI50 in the test with K562, in the test on MCF7, with MDA-MB-435, in the test with NCI-H522, in the test with NCI/ADR-RES and in the test on RPMI-8226 was > 100 µM (inactive) in each case. Also, the GI50 in the test with RXF 393, with SK-OV-3, with TK-10, in the test on UACC-257 and in the test with UO-31 was > 100 µM (inactive) in each case.
On to `CCCCCC(/C=C/[C@@H]1[C@@H](C(O)CCCCCC(=O)OC)C(=O)C[C@H]1O[Si](C)(C)C(C)(C)C)OCOCCOC` (stereo partly drawn), for which the GI50 in the test on COLO 205 is 18.9 µM (inactive); in the test with DU-145, 18 µM (inactive); in the test with HCC 2998, 23 µM (inactive); with HOP-62, 16.9 µM (inactive); with HOP-92 it was 21 µM (inactive); in the test on IGROV-1, 6.28 µM (inactive). Also, the GI50 in the test with K562 is > 21 µM (inactive); in the test with MCF7, 4.76 µM (inactive); with MDA-MB-435, 8 µM (inactive); in the test with NCI-H522, 3.92 µM (inactive); in the test on NCI/ADR-RES, 18.9 µM (inactive); in the test with OVCAR-4 it was 18.5 µM (inactive). Besides, the GI50 with RPMI-8226 was 2.71 µM (inactive); with RXF 393, 18.6 µM (inactive); in the test with SK-MEL-2, 17 µM (inactive); in the test with SK-OV-3 it was 18.8 µM (inactive); with TK-10, 16.6 µM (inactive); in the test on UACC-257, 7.85 µM (inactive). Moreover, the GI50 in the test with UO-31 is 15.6 µM (inactive).
With `Cc1cc(S(N)(=O)=O)c(S/C(=N\Nc2ccc([N+](=O)[O-])cc2)c2ccc(Cl)cc2)cc1Cl`, the GI50 is 7.87 µM (inactive) in the test with COLO 205; 2.19 µM (inactive) with DU-145; 44.3 µM (inactive) in the test on HL-60; 3.18 µM (inactive) in the test on HOP-62; 2.26 µM (inactive) in the test on HOP-92; 3.44 µM (inactive) with IGROV-1. Moreover, the GI50 is 3.41 µM (inactive) with K562; 2.01 µM (inactive) in the test on MCF7; 2.27 µM (inactive) in the test with MDA-MB-435; 3.21 µM (inactive) in the test on NCI-H522; 2.64 µM (inactive) with NCI/ADR-RES; 1.71 µM (inactive) in the test with OVCAR-4. In addition, the GI50 was 2.58 µM (inactive) in the test on RPMI-8226; 1.75 µM (inactive) in the test with RXF 393; 2.76 µM (inactive) in the test on SK-MEL-2; 1.96 µM (inactive) with SK-OV-3; 1.79 µM (inactive) in the test with TK-10; 2.72 µM (inactive) with UACC-257. Moreover, in the test with UO-31, the GI50 is 4.42 µM (inactive).
Turning to `Cc1cc(C)nc(SCC(=O)OC2CC(C)CCC2C(C)C)n1` (stereo not drawn), the GI50 in the test with COLO 205 is 16.7 µM (inactive); in the test with DU-145, 34.3 µM (inactive); in the test on HL-60, 19.1 µM (inactive); in the test with HOP-62, 11.6 µM (inactive); in the test on HOP-92, 26 µM (inactive); in the test with IGROV-1, 20.6 µM (inactive). Further, the GI50 in the test with K562 is 20 µM (inactive); in the test with MCF7, 23.3 µM (inactive); with MDA-MB-435, 23.6 µM (inactive); with NCI-H522, 18.8 µM (inactive); in the test with NCI/ADR-RES, 17 µM (inactive); in the test with OVCAR-4, 20.9 µM (inactive). In addition, the GI50 is 19.3 µM (inactive) in the test on RPMI-8226; 16.8 µM (inactive) in the test with RXF 393; 21.8 µM (inactive) in the test on SK-MEL-2; 23.9 µM (inactive) with SK-OV-3; 34.3 µM (inactive) in the test on TK-10; 19.6 µM (inactive) with UACC-257. Also, the GI50 in the test on UO-31 was 18.7 µM (inactive).
`Cc1nc2ccc(Cl)cc2c2c1CCN2c1ccccc1`: the GI50 with COLO 205 is 2.76 µM (inactive); with DU-145 it was 19.5 µM (inactive); with HCC 2998 it was 12.1 µM (inactive); in the test with HL-60, 2.72 µM (inactive); in the test with HOP-62, 21.5 µM (inactive); in the test on HOP-92 it was 8.59 µM (inactive). For the same compound, the GI50 with IGROV-1 was 14.3 µM (inactive); in the test on K562, 5.05 µM (inactive); with MCF7, 15.1 µM (inactive); with MDA-MB-435 it was 7.62 µM (inactive); in the test with NCI-H522, 11.7 µM (inactive); in the test on NCI/ADR-RES it was 11.7 µM (inactive). In addition, the GI50 is 26.4 µM (inactive) with OVCAR-4; 12.4 µM (inactive) in the test on RPMI-8226; 3.47 µM (inactive) in the test with RXF 393; 12.7 µM (inactive) in the test with TK-10; 15.2 µM (inactive) in the test with UACC-257; 8.89 µM (inactive) with UO-31.
Consider `Cc1cc(O)c(C(C)C)cc1CN1CCCCC1`, for which the GI50 with COLO 205, in the test with DU-145, in the test on HCC 2998, in the test with HL-60, in the test on HOP-62 and in the test on HOP-92 was > 100 µM (inactive) each time. The GI50 in the test on IGROV-1, in the test with K562, in the test with MCF7, with MDA-MB-435, with NCI-H522 and in the test with NCI/ADR-RES was > 100 µM (inactive) in each case. For the same compound, the GI50 in the test with OVCAR-4, with RPMI-8226, in the test on RXF 393, in the test with SK-OV-3, in the test on TK-10 and in the test with UACC-257 was > 100 µM (inactive) in each case. Also, the GI50 in the test with UO-31 was > 100 µM (inactive).
Consider `CC(C)Oc1cc2c(cc1O)CC[C@@H]1[C@@H]2CC[C@]2(C)[C@@H](O)CC[C@@H]12`, for which the GI50 with COLO 205 was 20 µM (inactive); with DU-145, 7.28 µM (inactive); in the test with HCC 2998 it was 5.26 µM (inactive); in the test with HL-60 it was 1.71 µM (inactive); in the test on HOP-62, 4.15 µM (inactive); in the test with HOP-92 it was 11.2 µM (inactive). The GI50 with IGROV-1 is 6.14 µM (inactive); with K562, 1.51 µM (inactive); in the test with MCF7, 2.25 µM (inactive); with MDA-MB-435, 0.687 µM (active); in the test with NCI-H522, 1.58 µM (inactive); in the test with NCI/ADR-RES, 2.07 µM (inactive). The GI50 with OVCAR-4 was 9.64 µM (inactive); in the test on RPMI-8226, 4.29 µM (inactive); in the test on RXF 393, 3.82 µM (inactive); with SK-OV-3, 4.67 µM (inactive); with TK-10 it was 11 µM (inactive); with UACC-257, 3.99 µM (inactive). Also, the GI50 with UO-31 was 6.46 µM (inactive).
For the compound `NC(CSc1nc2ccccn2c1[N+](=O)[O-])C(=O)O` (stereo not drawn), the GI50 with COLO 205, with DU-145, with HCC 2998, with HOP-62, in the test with HOP-92 and in the test on IGROV-1 was > 100 µM (inactive) each time. In addition, the GI50 in the test on K562, with MCF7, in the test with MDA-MB-435, in the test on NCI-H522, in the test on NCI/ADR-RES and in the test with OVCAR-4 was > 100 µM (inactive) throughout. Also, the GI50 in the test with RPMI-8226, in the test on RXF 393, with SK-MEL-2, with SK-OV-3, in the test on TK-10 and with UACC-257 was > 100 µM (inactive) in each case. In addition, the GI50 in the test on UO-31 was 2.49 µM (inactive).
As for `CCOc1cc(C2CC(c3ccc(NS(=O)(=O)c4cc([N+](=O)[O-])ccc4C)cc3)=NN2c2ccc([N+](=O)[O-])cc2[N+](=O)[O-])ccc1O` (stereo not drawn), the GI50 in the test on COLO 205 was 17.7 µM (inactive); in the test with DU-145, 12.8 µM (inactive); in the test on HL-60, 40.9 µM (inactive); in the test with HOP-62, 10.7 µM (inactive); with HOP-92, 10.4 µM (inactive); with IGROV-1 it was 12.5 µM (inactive). Further, the GI50 was 21.3 µM (inactive) with K562; 7.46 µM (inactive) in the test with MCF7; 11.6 µM (inactive) with MDA-MB-435; 10.4 µM (inactive) in the test on NCI-H522; 8.04 µM (inactive) with NCI/ADR-RES; 3.3 µM (inactive) in the test on OVCAR-4. Besides, the GI50 is 11.3 µM (inactive) in the test on RPMI-8226; 7.11 µM (inactive) in the test with RXF 393; 19.5 µM (inactive) in the test on SK-MEL-2; 3.43 µM (inactive) in the test with SK-OV-3; 15.7 µM (inactive) with TK-10; 19.1 µM (inactive) with UACC-257. Further, the GI50 with UO-31 was 14.6 µM (inactive).
Turning to `S=C1c2ccccc2N=C(NC2CCCC2)C2CSCN12` (stereo not drawn), the GI50 was > 100 µM (inactive) with COLO 205; > 100 µM (inactive) with DU-145; 65.6 µM (inactive) with HCC 2998; > 100 µM (inactive) in the test with HOP-62; > 100 µM (inactive) with IGROV-1; 39.8 µM (inactive) with K562. Further, the GI50 in the test with MCF7 is 67.6 µM (inactive); with MDA-MB-435 it was 76 µM (inactive); in the test with NCI-H522, 37.5 µM (inactive); in the test with NCI/ADR-RES, > 100 µM (inactive); with OVCAR-4, > 100 µM (inactive); with RPMI-8226, 75.2 µM (inactive). Further, the GI50 with RXF 393 is 91.6 µM (inactive); with SK-MEL-2, > 100 µM (inactive); in the test with SK-OV-3, > 100 µM (inactive); in the test with TK-10 it was > 100 µM (inactive); in the test on UACC-257, 51.5 µM (inactive); with UO-31, 65.2 µM (inactive).
